Tests used:
Format in all cases: in vivo
Kochia (Kochia scoparia) [1] = assay: Test A preemergence; conditions: for Plant response rating, Kochia: 125 g ai/ha, preemergence, 0 to 100 scale (0 no effect, 100 complete control); for Kochia plant response rating (0 to 100 scale, 0 is no effect, 100 is complete control): Preemergence, 500 g ai/ha, visual injury approx. 10 d
In short: (§1)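 Each rating is a visual injury score from 0 to 100 given about 10 d after treatment, judged against untreated controls kept alongside in the greenhouse. In loam soil–sand blend, seeds got a preemergence directed soil spray, while postemergence plants were 2 to 10 cm tall at spraying.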

[2] = tested on: barnyardgrass (Echinochloa crus-galli); assay: Test A preemergence; conditions: for Plant response rating, Barnyardgrass: 125 g ai/ha, preemergence, 0 to 100 scale (0 no effect, 100 complete control); for Barnyardgrass plant response rating (0 to 100 scale, 0 is no effect, 100 is complete control): Preemergence, 500 g ai/ha, visual injury approx. 10 d
In short: as §1

[3] = tested on: giant foxtail (Setaria faberii); assay: Test A preemergence; conditions: for Plant response rating, Foxtail, Giant: 125 g ai/ha, preemergence, 0 to 100 scale (0 no effect, 100 complete control); for Foxtail, Giant plant response rating (0 to 100 scale, 0 is no effect, 100 is complete control): Preemergence, 500 g ai/ha, visual injury approx. 10 d
In short: as §1

[4] = tested on: pigweed (Amaranthus retroflexus); assay: Test A preemergence; conditions: for Plant response rating, Pigweed: 125 g ai/ha, preemergence, 0 to 100 scale (0 no effect, 100 complete control); for Pigweed plant response rating (0 to 100 scale, 0 is no effect, 100 is complete control): Preemergence, 500 g ai/ha, visual injury approx. 10 d
[5] = tested on: ragweed (common ragweed, Ambrosia elatior); assay: Test A preemergence; conditions: for Plant response rating, Ragweed: 125 g ai/ha, preemergence, 0 to 100 scale (0 no effect, 100 complete control); for Ragweed plant response rating (0 to 100 scale, 0 is no effect, 100 is complete control): Preemergence, 500 g ai/ha, visual injury approx. 10 d
In short: as §1

[6] = tested on: ryegrass, Italian (Italian ryegrass, Lolium multiflorum); assay: Test A preemergence; conditions: for Plant response rating, Ryegrass, Italian: 125 g ai/ha, preemergence, 0 to 100 scale (0 no effect, 100 complete control); for Ryegrass, Italian plant response rating (0 to 100 scale, 0 is no effect, 100 is complete control): Preemergence, 500 g ai/ha, visual injury approx. 10 d
In short: as §1

[7] = tested on: Galium (catchweed bedstraw, Galium aparine); assay: Test A postemergence; conditions: postemergence; for Galium plant response rating: 125 g ai/ha, visual injury rating on 0 to 100 scale (0 no effect, 100 complete control), approx. 10 d; for Plant response rating, Galium: 500 g ai/ha, 0 to 100 scale, 0 no effect, 100 complete control
In short: as §1

Kochia (Kochia scoparia) [8] = assay: Test A postemergence; conditions: postemergence; for Kochia plant response rating: 125 g ai/ha, visual injury rating on 0 to 100 scale (0 no effect, 100 complete control), approx. 10 d; for Plant response rating, Kochia: 500 g ai/ha, 0 to 100 scale, 0 no effect, 100 complete control
In short: as §1

[9] = tested on: barnyardgrass (Echinochloa crus-galli); assay: Test A postemergence; conditions: postemergence; for Barnyardgrass plant response rating: 125 g ai/ha, visual injury rating on 0 to 100 scale (0 no effect, 100 complete control), approx. 10 d; for Plant response rating, Barnyardgrass: 500 g ai/ha, 0 to 100 scale, 0 no effect, 100 complete control
In short: as §1

[10] = tested on: blackgrass (Alopecurus myosuroides); assay: Test A postemergence; conditions: postemergence; for Blackgrass plant response rating: 125 g ai/ha, visual injury rating on 0 to 100 scale (0 no effect, 100 complete control), approx. 10 d; for Plant response rating, Blackgrass: 500 g ai/ha, 0 to 100 scale, 0 no effect, 100 complete control
In short: as §1

corn (Zea mays) = assay: Test A postemergence; conditions: postemergence; for Corn plant response rating: 125 g ai/ha, visual injury rating on 0 to 100 scale (0 no effect, 100 complete control), approx. 10 d; for Plant response rating, Corn: 500 g ai/ha, 0 to 100 scale, 0 no effect, 100 complete control
In short: as §1

[11] = tested on: giant foxtail (Setaria faberii); assay: Test A postemergence; conditions: postemergence; for Foxtail, Giant plant response rating: 125 g ai/ha, visual injury rating on 0 to 100 scale (0 no effect, 100 complete control), approx. 10 d; for Plant response rating, Foxtail, Giant: 500 g ai/ha, 0 to 100 scale, 0 no effect, 100 complete control
In short: as §1

[12] = tested on: pigweed (Amaranthus retroflexus); assay: Test A postemergence; conditions: postemergence; for Pigweed plant response rating: 125 g ai/ha, visual injury rating on 0 to 100 scale (0 no effect, 100 complete control), approx. 10 d; for Plant response rating, Pigweed: 500 g ai/ha, 0 to 100 scale, 0 no effect, 100 complete control
In short: as §1

[13] = tested on: ragweed (common ragweed, Ambrosia elatior); assay: Test A postemergence; conditions: postemergence; for Ragweed plant response rating: 125 g ai/ha, visual injury rating on 0 to 100 scale (0 no effect, 100 complete control), approx. 10 d; for Plant response rating, Ragweed: 500 g ai/ha, 0 to 100 scale, 0 no effect, 100 complete control
In short: as §1

[14] = tested on: ryegrass, Italian (Italian ryegrass, Lolium multiflorum); assay: Test A postemergence; conditions: postemergence; for Ryegrass, Italian plant response rating: 125 g ai/ha, visual injury rating on 0 to 100 scale (0 no effect, 100 complete control), approx. 10 d; for Plant response rating, Ryegrass, Italian: 500 g ai/ha, 0 to 100 scale, 0 no effect, 100 complete control
In short: as §1

[15] = tested on: wheat (Triticum aestivum); assay: Test A postemergence; conditions: postemergence; for Wheat plant response rating: 125 g ai/ha, visual injury rating on 0 to 100 scale (0 no effect, 100 complete control), approx. 10 d; for Plant response rating, Wheat: 500 g ai/ha, 0 to 100 scale, 0 no effect, 100 complete control
In short: as §1

[16] = tested on: barnyardgrass (Echinochloa crus-galli); assay: Test B flooded paddy test; conditions: Flood, 250 g ai/ha; 0 to 100 scale where 0 is no effect and 100 is complete control; 13 to 15 d
In short: (§2)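 Rating scale 0–100 (visual, vs untreated controls) after a 13–15 d greenhouse period; application to the flood layer, 3 cm above soil and maintained; plants at 2-leaf stage when treated.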

[17] = tested on: ducksalad (Heteranthera limosa); assay: Test B flooded paddy test; conditions: Flood, 250 g ai/ha; 0 to 100 scale where 0 is no effect and 100 is complete control; 13 to 15 d
In short: as §2

rice (Oryra sativa) = assay: Test B flooded paddy test; conditions: Flood, 250 g ai/ha; 0 to 100 scale where 0 is no effect and 100 is complete control; 13 to 15 d
In short: as §2

[18] = tested on: sedge, umbrella (small-flower umbrella sedge, Cyperus difformis); assay: Test B flooded paddy test; conditions: Flood, 250 g ai/ha; 0 to 100 scale where 0 is no effect and 100 is complete control; 13 to 15 d
In short: as §2

SMILES | Plant response rating, Kochia (Kochia (Kochia scoparia) [1]) | Kochia plant response rating (0 to 100 scale, 0 is no effect, 100 is complete control) (Kochia (Kochia scoparia) [1]) | Plant response rating, Barnyardgrass [2] | Barnyardgrass plant response rating (0 to 100 scale, 0 is no effect, 100 is complete control) [2] | Plant response rating, Foxtail, Giant [3] | Foxtail, Giant plant response rating (0 to 100 scale, 0 is no effect, 100 is complete control) [3] | Plant response rating, Pigweed [4] | Pigweed plant response rating (0 to 100 scale, 0 is no effect, 100 is complete control) [4] | Plant response rating, Ragweed [5] | Ragweed plant response rating (0 to 100 scale, 0 is no effect, 100 is complete control) [5] | Plant response rating, Ryegrass, Italian [6] | Ryegrass, Italian plant response rating (0 to 100 scale, 0 is no effect, 100 is complete control) [6] | Galium plant response rating [7] | Plant response rating, Galium [7] | Kochia plant response rating (Kochia (Kochia scoparia) [8]) | Plant response rating, Kochia (Kochia (Kochia scoparia) [8]) | Barnyardgrass plant response rating [9] | Plant response rating, Barnyardgrass [9] | Blackgrass plant response rating [10] | Plant response rating, Blackgrass [10] | other results
Cc1cc(C2CN(C)C(=O)C2C(=O)Nc2ccc(F)cc2F)ccc1F (stereo not drawn) [Compound 404] | 60 | 70 | 90 | 90 | 90 | 90 | 30 | 60 | 0 | 50 | 0 | 80 | 50 | 50 | 60 | 70 | 90 | 90 | 40 | 60 | Corn plant response rating (corn (Zea mays)): 40; Plant response rating, Corn (corn (Zea mays)): 80; Foxtail, Giant plant response rating [11]: 90; Plant response rating, Foxtail, Giant [11]: 90; Pigweed plant response rating [12]: 20; Plant response rating, Pigweed [12]: 60; Ragweed plant response rating [13]: 30; Plant response rating, Ragweed [13]: 50; Ryegrass, Italian plant response rating [14]: 40; Plant response rating, Ryegrass, Italian [14]: 70; Wheat plant response rating [15]: 50; Plant response rating, Wheat [15]: 80; Plant response rating, Barnyardgrass [16]: 80; Plant response rating, Ducksalad [17]: 100; Plant response rating, Rice (rice (Oryra sativa)): 30; Plant response rating, Sedge, Umbrella [18]: 0
Cc1cc(C2CN(C)C(=O)C2C(=O)Nc2ccccc2S(C)(=O)=O)ccc1F (stereo not drawn) [Compound 405] | 50 | 70 | 90 | 90 | 90 | 90 | 50 | 60 | 20 | 70 | 0 | 30 | 60 | 60 | 40 | 50 | 90 | 90 | 50 | 60 | Corn plant response rating (corn (Zea mays)): 30; Plant response rating, Corn (corn (Zea mays)): 80; Foxtail, Giant plant response rating [11]: 80; Plant response rating, Foxtail, Giant [11]: 80; Pigweed plant response rating [12]: 40; Plant response rating, Pigweed [12]: 50; Ragweed plant response rating [13]: 0; Plant response rating, Ragweed [13]: 50; Ryegrass, Italian plant response rating [14]: 30; Plant response rating, Ryegrass, Italian [14]: 60; Wheat plant response rating [15]: 60; Plant response rating, Wheat [15]: 80; Plant response rating, Barnyardgrass [16]: 70; Plant response rating, Ducksalad [17]: 85; Plant response rating, Rice (rice (Oryra sativa)): 0; Plant response rating, Sedge, Umbrella [18]: 0

From US12077503B2, “Substituted cyclic amides and their use as herbicides” (FMC CORPORATION, priority 2015, dated 2024)
